These results are taken from patent US8148355B2, “Phophylactic and therapeutic use of hydroxysteroids” (Hunter-Fleming Limited, priority 2001, dated 2012).

Where “and” joins values, the source holds several entries; their conditions need not be identical. Equal entries are not always repeated.

Data set [1] concerns hippocampal CA1 pyramidal cells. Nature of the data set: Global cerebral ischaemia in rats, 4 vessel occlusion (intact CA1 neurons, Nissl staining). In kind it is in vivo, male Wistar rats. The procedure:
Cerebral ischaemia was induced by four-vessel-occlusion (4VO) in male Wistar rats (250-280 g). Both vertebral arteries were occluded by electrocauterization in pentobarbital anaesthesia (60 mg/kg i.p.). The animals were allowed to recover for 24 hours with free access to water but not food. The next day the carotid arteries were exposed under 2% halothane in 30% oxygen/70% nitrous oxide anaesthesia and were occluded for 10 minutes using microvascular clamps. Subsequently, both clamps were removed and both arteries were inspected for immediate reperfusion. During the operation and the following 3 hours normothermia of the animals (37.5±0.5° C.) was maintained by using a thermostatically controlled heating blanket connected to a rectal thermometer. For control, in sham-operated animals both vertebral arteries were cauterised in pentobarbital anaesthesia and both common carotid arteries were exposed but not clamped under 2% halothane in 30% oxygen/70% nitrous oxide anaesthesia the following day. The wound was treated with lidocaine gel and then sutured. The animals were kept under a heating lamp at 30° C. environmental temperature until they regained consciousness.
Seven groups of animals were investigated: • 1. (n=8) steroid compound, 7β-OH EPIA (0.1 mg/kg, i.v. via tail vein, three injections: 15 minutes prior to the induction of ischaemia, during ischaemia and 5 minutes after reperfusion); • 2. (n=8) steroid compound, 7β-OH EPIA (0.3 mg/kg, i.v. three injections as described in 1.); • 3. (n=8) steroid compound, 7β-OH EPIA (1 mg/kg, i.v., three injections as described in 1.); • 4. (n=8) NBQX (disodium salt, because more water soluble) as reference substance and positive control (TOCRIS, Germany, 30 mg/kg, i.p., three injections as described in 1.); • 5. (n=8) received vehicle (0.9% NaCl, containing 100 μl Ethanol) three injections as described in 1.); • 6. (n=8) ischaemia alone; • 7. (n=8) sham operated controls.
The substances were dissolved in 100 μl ethanol and finally diluted with 0.9% NaCl.
After a survival time of 7 days after ischaemia, all animals were perfusion fixed tanscardially with 4% paraformaldehyde. The brains were then removed carefully and postfixed in the same fixative for 2 hours. After cryoprotection in 30% sucrose, the brains were rapidly frozen in isopentane and stored at −80° C. Twenty-micrometer cryostat sections comprising the hippocampal formation were Nissl stained with toluidine blue or NeuroTrace fluorescence.
The severity of neuronal damage in the hippocampal CA1 region after ischaemia was evaluated by the number of surviving neurons using Nissl staining. The mean number of morphologically intact neurons per 400 μm length was calculated in CA1 region for each group. Cell counting was performed in 3-5 serial sections per animal and 6 times 400 μm CA1 area per section using a light microscope equipped with a 20× objective. The data were statistically analysed by paired Student's t-test. Data were presented as mean±SEM.
Morphological intact hippocampal CA1 neurons were characterised by Nissl staining (toluidine blue and NeuroTrace) with the following criteria: clear shape of a neuronal perikarya, large nucleus with a positive labelled nucleolus, a small cytoplasm zone around the nucleus with positive Nissl staining, indicating the intact rough endoplasmic reticulum with ribosomes and therefore the intact protein synthesis machinery.

Data set [2] has as its system Langendorf perfused male rat hearts. Nature of the data set: Cardioprotective effect in Langendorf perfused rat hearts (regional ischaemia/reperfusion, infarct size). Also on record: species or system Wistar rats. The conditions noted are these: 100 nM in perfusate, 30 min regional ischaemia, 120 min reperfusion. As for the experimental part:
The study was designed to test the potential anti-ischaemic and cardioprotective effect of 7β-OH EPIA in Langendorf perfused male rat hearts. The end point for evaluation of protection in this model is infarct size (protection against lethal injury, cell death). The infarct size model used is based on a standardised ischaemic insult followed by reperfusion. In the current study, treatment was added ex vivo (to the perfusion solution of the isolated heart) for 30 minutes prior to infarction and continued through 30 minutes regional ischaemia (infarction) and 120 minutes of reperfusion. Based on results from pilot studies, a concentration of 100 nM was used and compared to vehicle treated hearts. The drug was dissolved in DMSO (vehicle) and the final concentration of DMSO in the perfusion solution was 1:10^−6.
Animals were housed in the animal department of the University of Tromsø and treated according to the guidelines formulated by the European Convention for the protection of vertebrate animals used for experimental or other purposes. Supply of Wistar rats were from Harland (The Netherlands), and the rats stayed in the animal department for one week before experiments were started. Animal weight was restricted to 240-380 g, and only male hearts were used. This corresponds to age 60-120 days. […]
The perfusion pressure was 100 mm H2O. […] Heart rate was calculated from pressure recordings. […]

Data set [3] deals with Organotypic hippocampal slice cultures (CA1 cell layer). Nature of the data set: Hypoxic neuronal damage in organotypic hippocampal slice cultures (PI fluorescence in CA1). The conditions noted are these: for effect on hypoxic damage in CA1 (in words): pre-. In kind it is cell-based, Wistar rat. The procedure:
Protocol For Studying Hypoxic Neuronal Damage
Organotypic hippocampal slice cultures were prepared using the basic method of Pringle et al (1996, 1997) modified as follows:
Wistar rat pups (8-11 days old) were decapitated and the hippocampus rapidly dissected into ice-cold Gey's balanced salt solution supplemented with 4.5 mg/ml glucose. Slices were separated and plated onto Millicell CM culture inserts (4 per well) and maintained at 37° C./5% CO2 for 14 days. Maintenance medium consisted of 25% heat-inactivated horse serum, 25% Hank's balanced salt solution (HBSS) and 50% minimum essential medium with added Earle's salts (MEM) supplemented with 1 mM glutamine and 4.5 mg/ml glucose. Medium was changed every 3-4 days.
Experimental hypoxia was performed as described previously (Pringle et al., 1996; 1997). Briefly, cultures were transferred to serum free medium (SFM-75% MEM, 25% HBSS supplemented with 1 mM glutamine and 4.5 mg/ml glucose) containing 5 μg/ml of the fluorescent exclusion dye propidium iodide (PI). Cultures were allowed to equilibrate in SFM for 60 minutes prior to imaging. PI fluorescence was detected using a Leica inverted microscope fitted with a rhodamine filter set. Any cultures in which PI fluorescence was detected at this stage were excluded from further study. Hypoxia was induced by transferring cultures to SFM (+PI) which had been saturated with 95% N2/5% CO2. Culture plates (without lids) were then sealed into an airtight chamber in which the atmosphere was saturated with 95% N2/5% CO2 by continuously blowing through gas at 10 liters/minute for ten minutes before being sealed and placed in the incubator for 170 minutes (total time of hypoxia was therefore 180 minutes). At the end of the hypoxic period cultures were returned to normoxic SFM containing PI and placed back in the incubator for 24 hours.
Neuronal damage was assessed as described previously (Pringle et al., 1996; 1997) using either NIH Image 1.60 running on an Apple IIsi computer or OpenLab 2.1 (Improvision) running on a Macintosh G4/400. Images were captured using a monochrome camera and saved onto optical disk for offline analysis. Light transmission images were captured prior to the addition of drugs, and PI fluorescence images recorded at the end of the 24-hour post-hypoxia recovery period. The area of the CA1 cell layer was determined from the transmission image. The area of PI fluorescence in CA1 was measured using the density slice function within NIH Image or OpenLab, and neuronal damage expressed as the percentage of the CA1 in which PI fluorescence was detected above background.
Steroid compounds were prepared by making an initial 1 mg/ml solution in ethanol and further diluting down in SFM. Compounds were added to the cultures for 45 minutes prior to hypoxia, during the hypoxic episode and during the post-hypoxic recovery period. Control experiments consisted of cultures treated with vehicle alone.

Setting [4] is: Experiment 1, 100 nM, during and post-hypoxia.
Setting [5] is: Experiment 1, 100 nM, present pre-, during and post-hypoxia, control hypoxia 25.5 ± 6.4.
The mark [6] stands for this setting: 30 mg/kg, three injections, 10 min global ischaemia, 7 days survival.

For `C[C@]12CC[C@H](O)C[C@@H]1C[C@H](O)[C@@H]1[C@@H]2CC[C@]2(C)C(=O)CC[C@@H]12` [7βOH-EPIA, 7β-hydroxyepiandrosterone], in data set [1] (0.1 mg/kg (p=0.01) and 0.3 mg/kg (p=0.0008)), the “neuroprotective effect, t-test analysis (in words)” value is listed as “highly significant neuroprotective effect”. The “neuroprotective effect on CA1 pyramidal cells compared to the sham operated group” value in data set [1] (0.1 mg/kg i.v., three injections, 10 min global ischaemia, 7 days survival) worked out at 74.8%; in data set [1] (0.3 mg/kg i.v., three injections, 10 min global ischaemia, 7 days survival), 83.9%. In addition, in data set [1] (1.0 mg/kg i.v., three injections), the “neuroprotection of CA1 pyramidal cells (in words)” value is given as “only a tendency to neuroprotection, but the effect was not significant”. Also, the “behavioural abnormalities of the animals” value in data set [1] (injected i.v. prior, during and after ischaemia) is reported as “never observed any behavioural abnormalities”. In addition, the Infarct volume in data set [2] (control 38.9) turned out to be 14.1. Also, the “Infarct/risk zone (%)” value in data set [2] (control 46.3) was 14.4+/−1.22% and 14.4%. The “effect on hypoxic damage in CA1 (in words)” value in data set [3] (setting [4]) is “significantly reduced”. The “% Damage in CA1” value in data set [3] (setting [5]) came to 9.0 ± 4.7 %; in data set [3] (Experiment 2, 1 nM, control hypoxia 31.9 ± 4.7), 20.6 ± 7.2%; in data set [3] (Experiment 2, 10 nM, control hypoxia 31.9 ± 4.7) it was 11.9 ± 4.7 %; in data set [3] (Experiment 2, 100 nM, control hypoxia 31.9 ± 4.7), 14.3 ± 5.0 %. The “neuroprotection against hypoxia (in words)” value is “activity was lost” in data set [3] (Experiment 2, 1 nM); “significantly neuroprotective” in data set [3] (Experiment 2, 10 nM and 100 nM).
Take `C[C@]12CC[C@H](O)CC1=C[C@H](O)[C@@H]1[C@@H]2CC[C@]2(C)C(=O)CC[C@@H]12` [7βOH-DHEA, 7β-hydroxy-DHEA]: the “effect on neuronal damage (in words)” value in data set [3] (Experiment 3, 100 nM pre-, during and post-hypoxia) is recorded as “a large, highly significant, reduction in neuronal damage”. Further, the “% Damage in CA1” value in data set [3] (Experiment 3, 100 nM pre-, during and post-hypoxia, control hypoxia 29.0 ± 6.2) is reported as 4.1 ± 1.9 %.
For the molecule `C[C@]12CC[C@H](O)C[C@@H]1C[C@@H](O)[C@@H]1[C@@H]2CC[C@]2(C)C(=O)CC[C@@H]12` [7αOH-EPIA, 7α-Hydroxy-EPIA], in data set [3] (setting [4]), the “effect on hypoxic damage in CA1 (in words)” value is “significantly reduced”. In addition, the “% Damage in CA1” value in data set [3] (setting [5]) was found to be 4.0 ± 2.9 %.
On to `NS(=O)(=O)c1cccc2c1c([N+](=O)[O-])cc1nc(O)c(O)nc12` [NBQX, 2,3-dihydroxy-6-nitro-7-sulfamoyl-benzo(F)quinoxaline, reference compound], for which, in data set [1] (30 mg/kg, three injections), the “neuroprotection in CA1 pyramidal cells compared to the ischaemia group (in words)” value is “significant (p=0.03) neuroprotection”. Besides, in data set [1] (setting [6]), the “neuroprotection compared to the ischaemia alone” value amounted to 47.5% and the “protective effect compared to the sham operated animals” value stood at 68.5%.
